Experiment [1] deals with T1, β-kinase domain of the human insulin receptor (CKD) (Homo sapiens, UniProt P06213).
T1 construct: The complete β-kinase domain of the human insulin receptor (CKD); made in house
Description: 32P-Cytoplasmic Kinase Domain (CKD) autophosphorylation assay. In kind it is biochemical. Conditions: 32P incorporated into CKD band, percentage of the vehicle (DMSO) level; 10 minutes at room temperature; compound concentration not given. The procedure: The complete β-kinase domain of the human insulin receptor (CKD) was expressed in, and purified from, baculovirus. CKD (4.0 μg/mL), in a solution of 50 mM Tris.HCl, 2 mM MnCl2, 10 mM MgCl2 (50 μl final volume), was combined with […] ATP, and 5 μCi ^32P-ATP (3000 Ci/mmol.). A test compound, or the vehicle (DMSO), was added to a final DMSO concentration of 1%. The mixture was incubated for 10 minutes at room temperature. The reaction was terminated by the addition of 10 μl of 200 mM EDTA. A 30 μl volume was removed, mixed with 5 μl of 6×Laemmeli sodium dodecyl sulfate (SDS) treatment buffer, and heated to 94° C. for 5 minutes. A 20 μl aliquot was then run on an SDS-PAGE gel. The radioactivity incorporated into the CKD band is quantified by phosphorimaging of the gel, or scintillation counting of the excised bands.
The potency of a compound for increasing phosphorylation is expressed as a percentage of the vehicle level.

For the next experiment, the system named is 3T3 L1 fibroblasts. Description: Glucose transport activity (14C-2-deoxy-D-glucose uptake). Particulars: Mus musculus; differentiated 3T3 L1 cells, insulin 5.6 nM; concentration giving increase in glucose transport generally 150% of the vehicle control. The format is cell-based. The procedure: 3T3 L1 fibroblasts (ATCC) were grown in Dulbecco's modified Eagle's medium (DMEM) with 10% fetal bovine serum (FBS, medium). The cells were plated at a density of 3×10^4 cells/well in 24-well plates. Two days after confluence was reached, the cells were treated for 3 days with 0.5 mM isobutylmethylxanthine (IBMX), 1 μM dexamethasone, supplemented with 1.7 μM insulin. The cells were then transferred to medium with 1.7 μM insulin for 2 more days. The cells were maintained in medium for an additional 4 days. Finally the cells were serum starved overnight in 0.1% bovine serum albumin (BSA) in DMEM.
The following day, the culture medium was replaced with 150 mM NaCl, 1.7 mM KCl, 0.9 mM CaCl2, 1.47 mM K2HPO4 (pH 7.4) to which was added either the experimental compounds, or their vehicle (DMSO). Insulin or its vehicle (0.01% BSA) was diluted in the assay buffer (containing test compound or vehicle, respectively) to a final concentration of 5.6 nM. After incubation for 30 min at 37° C. 5 μCi/mL ^14C-2-[…]-D-glucose was added, and the incubation was continued for additional 30 min at 37° C. The cells were then washed 3 times with ice-cold PBS/20 mM glucose and […] in 250 μl of lysis buffer (50 mM HEPES pH 7.6, 1% Triton X-100) for 30 min at room temperature. Radioactivity in the lysate was quantified by scintillation counting.
Once ^14C-2-deoxy-D-glucose is transported into the cell it is not released. Glucose transport is, therefore, proportional to the amount of radioactivity in the lysate. The concentration of compound necessary to produce an increase in glucose transport greater than the sum of the standard deviation of the vehicle control plus the largest standard deviation of a test sample (generally 150% of the vehicle control) was recorded as the EC (effective concentration).

T1 sequence (P06213 980-1382 limits assumed): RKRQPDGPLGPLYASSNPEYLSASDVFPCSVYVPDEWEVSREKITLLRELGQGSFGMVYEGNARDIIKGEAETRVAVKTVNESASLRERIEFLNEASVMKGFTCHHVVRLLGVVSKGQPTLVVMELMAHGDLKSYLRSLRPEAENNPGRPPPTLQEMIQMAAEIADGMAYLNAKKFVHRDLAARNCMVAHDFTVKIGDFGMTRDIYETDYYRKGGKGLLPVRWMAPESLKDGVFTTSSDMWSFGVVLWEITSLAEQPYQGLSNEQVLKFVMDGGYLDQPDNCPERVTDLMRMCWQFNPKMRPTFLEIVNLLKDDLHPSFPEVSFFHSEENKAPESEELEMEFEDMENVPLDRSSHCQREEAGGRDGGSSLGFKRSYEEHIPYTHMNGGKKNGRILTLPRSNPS

In the case of `O=C(Nc1cc(C(=O)Nc2cccc3cc(S(=O)(=O)O)ccc23)cc(C(=O)Nc2cccc3cc(S(=O)(=O)O)ccc23)c1)c1cccc(Cl)c1` [Compound 10, 5-({3-[(3-chlorophenyl)carbonylamino]-5-[N-(6-sulfonaphthyl)carbamoyl]phenyl}carbonylamino)naphthalene-2-sulfonic acid], the “Activity (% Control)” value in experiment [1] was 123.1 % Control. Besides, the EC50 in the experiment on 3T3 L1 fibroblasts stood at 20 µM.

Take `O=C(Nc1cc(C(=O)Nc2cccc3cc(S(=O)(=O)O)ccc23)cc(C(=O)Nc2cccc3cc(S(=O)(=O)O)ccc23)c1)c1cccc(F)c1` [Compound 11, 5-({3-[(3-fluorophenyl)carbonylamino]-5-[N-(6-sulfonaphthyl)carbamoyl]phenyl}carbonylamino)naphthalene-2-sulfonic acid]: the “Activity (% Control)” value in experiment [1] amounted to 94 % Control. This compound also gave an EC50 in the experiment on 3T3 L1 fibroblasts of 20 µM.

For the compound `COc1cccc(C(=O)Nc2cc(C(=O)Nc3cccc4cc(S(=O)(=O)O)ccc34)cc(C(=O)Nc3cccc4cc(S(=O)(=O)O)ccc34)c2)c1` [Compound 13, 5-({3-[(3-methoxyphenyl)carbonylamino]-5-[N-(6-sulfonaphthyl)carbamoyl]phenyl}carbonylamino)naphthalene-2-sulfonic acid], in experiment [1], the “Activity (% Control)” value was determined as 83.7 % Control. Moreover, the EC50 in the experiment on 3T3 L1 fibroblasts is 200 µM.

Take `O=C(Nc1cc(C(=O)Nc2cccc3cc(S(=O)(=O)O)ccc23)cc(C(=O)Nc2cccc3cc(S(=O)(=O)O)ccc23)c1)c1cccc([N+](=O)[O-])c1` [Compound 15, 5-({3-[(3-nitrophenyl)carbonylamino]-5-[N-(6-sulfonaphthyl)carbamoyl]phenyl}carbonylamino)naphthalene-2-sulfonic acid]: the “Activity (% Control)” value in experiment [1] is given as 88.2 % Control. Further, the EC50 with 3T3 L1 fibroblasts was found to be 240 µM.

Take `Cc1ccc(C(=O)Nc2cc(C(=O)Nc3cccc4cc(S(=O)(=O)O)ccc34)cc(C(=O)Nc3cccc4cc(S(=O)(=O)O)ccc34)c2)cc1[N+](=O)[O-]` [Compound 16, 5-({3-[(3-nitro-4-methylphenyl)carbonylamino]-5-[N-(6-sulfonaphthyl)carbamoyl]phenyl}carbonylamino)naphthalene-2-sulfonic acid]: the “Activity (% Control)” value in experiment [1] worked out at 99.9 % Control. Moreover, the response in the experiment with 3T3 L1 fibroblasts was half-maximal at 20 µM (EC50).

With `O=C(Nc1cccc2cc(S(=O)(=O)O)ccc12)c1cc(NC(=O)c2ccccc2C(=O)O)cc(C(=O)Nc2cccc3cc(S(=O)(=O)O)ccc23)c1` [Compound 17, 2-(N-{3,5-bis[N-(6-sulfonaphthyl)carbamoyl]phenyl}carbamoyl)benzoic acid], in experiment [1], the “Activity (% Control)” value amounted to 92.7 % Control. In the experiment with 3T3 L1 fibroblasts, the EC50 was more than 250 µM.

For `O=C(Nc1cccc2cc(S(=O)(=O)O)ccc12)c1cc(NC(=O)c2cc(Cl)c(Cl)cc2C(=O)O)cc(C(=O)Nc2cccc3cc(S(=O)(=O)O)ccc23)c1` [Compound 18, 2-(N-{3,5-bis[N-(6-sulfonaphthyl)carbamoyl]phenyl}carbamoyl)-4,5-dichlorobenzoic acid], in experiment [1], the “Activity (% Control)” value was 95.3 % Control. In the experiment with 3T3 L1 fibroblasts, this compound gave a concentration for a half-maximal effect (EC50) of more than 250 µM.

As to `O=C(Nc1cc(C(=O)Nc2cccc3cc(S(=O)(=O)O)ccc23)cc(C(=O)Nc2cccc3cc(S(=O)(=O)O)ccc23)c1)c1ccc(Cl)cc1` [Compound 19, 5-({3-[(4-chlorophenyl)carbonylamino]-5-[N-(6-sulfonaphthyl)carbamoyl]phenyl}carbonylamino)naphthalene-2-sulfonic acid], in experiment [1], the “Activity (% Control)” value was 99 % Control. Besides, in the experiment with 3T3 L1 fibroblasts, a half-maximal response (EC50) required 150 µM.

`O=C(Nc1cccc2cc(S(=O)(=O)O)ccc12)c1cc(NC(=O)c2cccc(O)c2C(=O)O)cc(C(=O)Nc2cccc3cc(S(=O)(=O)O)ccc23)c1` [Compound 21, 2-(N-{3,5-bis[N-(6-sulfonaphthyl)carbamoyl]phenyl}carbamoyl)-6-hydroxybenzoic acid]: the “Activity (% Control)” value in experiment [1] is listed as 104.3 % Control. In addition, the EC50 with 3T3 L1 fibroblasts was more than 250 µM.

Turning to `O=C(Nc1cc(C(=O)Nc2cccc3cc(S(=O)(=O)O)ccc23)cc(C(=O)Nc2cccc3cc(S(=O)(=O)O)ccc23)c1)c1ccccc1` [Compound 22, 5-({3-(phenylcarbonylamino)-5-[N-(6-sulfonaphthyl)carbamoyl]phenyl}carbonylamino)naphthalene-2-sulfonic acid], in experiment [1], the “Activity (% Control)” value is recorded as 75.9 % Control. This compound also showed a concentration for a half-maximal effect (EC50) with 3T3 L1 fibroblasts of 200 µM.

On to `CC(=O)Nc1cc(C(=O)Nc2cccc3cc(S(=O)(=O)O)ccc23)cc(C(=O)Nc2cccc3cc(S(=O)(=O)O)ccc23)c1` [Compound 23, 5-({3-(acetylamino)-5-[N-(6-sulfonaphthyl)carbamoyl]phenyl}carbonylamino)naphthalene-2-sulfonic acid], for which the “Activity (% Control)” value in experiment [1] is given as 86.8 % Control. Besides, the EC50 with 3T3 L1 fibroblasts is more than 250 µM.

On to `O=C(Nc1cccc2cc(S(=O)(=O)O)ccc12)c1cc(NC(=O)c2cnc3ccccc3n2)cc(C(=O)Nc2cccc3cc(S(=O)(=O)O)ccc23)c1` [Compound 39], for which, in experiment [1], the “Activity (% Control)” value worked out at 96.9 % Control. In the experiment on 3T3 L1 fibroblasts, this compound showed a 50% effective concentration (EC50) of 100 µM.

Consider `Cc1ccc(OCC(=O)Nc2cc(C(=O)Nc3cccc4cc(S(=O)(=O)O)ccc34)cc(C(=O)Nc3cccc4cc(S(=O)(=O)O)ccc34)c2)cc1` [Compound 40, 5-({3-[2-(4-methylphenoxy)acetylamino]-5-[N-(6-sulfonaphthyl)carbamoyl]phenyl}carbonylamino)naphthalene-2-sulfonic acid], for which the “Activity (% Control)” value in experiment [1] was determined as 130.7 % Control. This compound also yielded a concentration giving a half-maximal response (EC50) in the experiment with 3T3 L1 fibroblasts of more than 250 µM.

Broadly, the EC50 is the concentration giving half of the maximal effect. Lower therefore signals a more potent agent.

The values are drawn from US6653321B1, “Naphthylsulfonic acids and related compounds as glucose uptake agonists” (Telik, Inc., priority 1999, dated 2003).
